Laboratory results taken from ChEMBL document CHEMBL1126527, “Insight into the catalytic mechanism of KDO8P synthase. Synthesis and evaluation of the isosteric phosphonate mimic of the putative cyclic intermediate” (Bioorg Med Chem Lett, 1993).

Test: Inhibition of homogeneous KDO 8-P synthase of Escherichia coli was determined from Dixon Plot

In the case of `O=C(O)C1(OP(=O)(O)O)CC(O)C(O)C([C@H](O)COP(=O)(O)O)O1` (stereo partly specified), the Ki is reported as 4.9 µM.
